Laboratory results as given in article PMC6943417, “Housefly Pupae-Derived Antioxidant Peptides Exerting Neuroprotective Effects on Hydrogen Peroxide-Induced Oxidative Damage in PC12 Cells” (Molecules, 2019).
Where no end group is shown, it is not given here.

System: pepsin and pancreatin
Format: in vitro ADME
Procedure: The ABTS cation radical scavenging activity assay was conducted according to the manufacture instruction. […] The ABTS cation radical scavenging activity was calculated by the following formula: ABTS cation radical scavenging activity (%) = (1 − A1/A0) × 100%(2) where A1 and A0 were the absorbances of sample group and control group, respectively. The sample solution of control group was replaced with deionized water. Ascorbic acid was used as a positive control.
Thermal stability of synthetic peptides was determined according to the method of Yarnpakdee et al. with minor modifications. The synthetic peptides were respectively incubated at 25, 60, 70, 80, 90 °C for 30 min and then measured their scavenging ability of ABTS cation radical. The ability of synthetic peptides against pH treatments was measured according to Zhu et al.. In brief, pH of peptide solution was adjusted to 1, 3, 5, 7, 9, 11, incubated at room temperature for 1 h, and then ABTS cation radical scavenging activity of the treated peptides was measured. A two-stage digestion of protease in vitro (pepsin-digestion for 1 h and then pancreatin-digestion for 2 h at 37 °C) was performed as described by Zhang et al.. The ABTS cation radical scavenging ability was evaluated to assess the peptides stability against GI digestion.

Row | Sequence | change in ABTS radical scavenging ability after simulated GI digestion
1 | ARFEELCSDLFR [AR12, Ala-Arg-Phe-Glu-Glu-Leu-Cys-Ser-Asp-Leu-Phe-Arg] | no significant change
2 | DFTPVCTTELGR [DR12, Asp-Phe-Thr-Pro-Val-Cys-Thr-Thr-Glu-Leu-Gly-Arg] | slight decrease
